Tests used:
Format in all cases: in vivo
[1] = tested on: eclipta prostrata; assay: Indoor virulence and combined effect, greenhouse pot test, post-emergence stem and leaf spray, fresh weight inhibition
In short: (§1)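 Weeds in greenhouse pots received a spray-tower treatment, either post-emergence at the 3–4 leaf (grasses) or 4–6 leaf (broadleaf) stage, or pre-emergence as a soil spray 24 h after sowing. Compounds were applied in acetone diluted with 0.1 wt% Tween-80 water, alone or mixed, in g/ha. Fresh weight inhibition was measured at 21 days, with synergy judged by Gowing expected efficacy (E−E0 >10%).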

[2] = tested on: veronica persica; assay: as above
In short: as §1

[3] = tested on: setaria viridis; assay: as above
In short: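 Greenhouse potted weeds sprayed post-emergence on stem and leaf at 3–4 leaf stage, with A and B alone or mixed; acetone solutions diluted in 0.1 wt% Tween-80, solvent-emulsifier water as blank.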

[4] = tested on: digitaria sanguinalis; assay: Indoor virulence and combined effect, greenhouse pot test, pre-emergence soil spray treatment, fresh weight inhibition
Procedure: (§2) The active ingredients A and B are respectively screened and an indoor combined effect of the composition on weeds was evaluated by an indoor test and a field test, to determine a combined effect of the composition on weeds.
(§3) Quantitative seeds of Poaceae weeds (echinochloa crusgalli, Digitaria sanguinalis, setaria viridis, Eleusine indica, avena fatua, alopecurus japonicus, alopecurus aequalis, Lolium multiflorum) and broadleaf weeds (eclipta prostrata, rorippa dubia, Abutilon theophrasti, conyza canadensis, veronica persica, myosoton aquaticum, polygonum lapathifolium, galium aparine var. tenerum, alisma plantago-aquatica, geranium carolinianum) were sown in paper cup containing nutrient soil with a diameter of 7 cm, covered with soil for 1 cm after sowing. After pressing and watering, they were cultured in a greenhouse according to a conventional method. Poaceae weeds grew to 3˜4 leaf stage, broad-leaved weeds grew to 4˜6 leaf stage, spraying treatment to both stem and leaf was performed; and pre-seedling soil spray treatment was performed 24 hours after sowing. Following an experimental design dosage, a WP-2000 walking spray tower (spindle speed 96 mm/r, spray height 200 mm, effective spray amplitude of nozzle 350 mm, nozzle flow rate 390 mL/min, nozzle walking speed 210 mm/s) was used for the spray treatment. The experiment was repeated three times. After being treated, a sample material is placed in an operation hall, and after the drug solution is naturally dried out, the sample material is placed in a greenhouse and managed according to the conventional method. A reaction of weeds to the drug agent is observed and recorded, and a regularly visual check of a control effect of the drug agent on weeds was performed after the treatment.
(§4) All of original drugs were using acetone as a solvent, being diluted with 0.1 wt % emulsifier of Tween-80 aqueous solution, and being diluted right before using.
(§5) When determining a ratio or content of the active ingredient A and the active ingredient B, it should be measured from characteristics of action of both agents and virulence thereof, as well as the main purpose of use of a formula shall also be considered in. In the present study, on a basis of previous pre-test, the dosages of the active ingredient A and the active ingredient B were set, when being used alone and mixed, as shown in the following table. Water containing no agent, but containing the same solvent and emulsifier was used as a blank control.
(§6) Repeat 4 times for each treatment, 3 pots per treatment each time and 30 weed seeds were sown for each pot.
(§7) Adopting an absolute number survey method, using a blade to cut the whole seedling of surviving weed along soil surface, and weighting the fresh weight of the weed with an analytical balance. For weeds that had died, counting the fresh weight as zero.
(§8) Survey period and frequency: 21 days after the treatment, total 1 investigation.
(§9) The theoretical fresh weight inhibition rate (E0-Expected Efficacy=[…]) of each treatment combination was calculated by Gowing method, and then compared with the measured inhibition rate (E-Observed Efficacy) to evaluate the combined effect type of both on weeds. When E-E0 value was greater than 10%, it was counted as a synergistic effect, less than −10%, it was counted as an antagonistic effect, and between −10%˜10%, it was counted as an additive effect. According to a plurality of factors including an actual control efficacy, a herbicide characteristic, a formula balance and other factors to determine the best ratio. In the formula, X is the fresh weight inhibition rate of the ingredient A at a dosage of P; Y is the fresh weight inhibition rate of the active ingredient B at a dosage of Q.
(§10) The statistical results are shown in Table 1 to Table 44 below, except for those marked clearly as “pre-emergence treatment”, all others are “post-emergence treatment”. […]

[5] = tested on: eclipta prostrata; assay: as above
Procedure: as §2, §3, §4, §5, §6, §7, §8, §9, §10

[6] = tested on: eleusine indica; assay: as above
Procedure: as §2, §3, §4, §5, §6, §7, §8, §9, §10

With `COCCOC(=O)C(C)(C)OC(=O)c1cc(-n2c(=O)cc(C(F)(F)F)n(C)c2=O)c(F)cc1Cl` [Compound A-273] the “Fresh weight inhibition rate %, A single agent” value (from here on “Fresh weight inhibition rate %”) ([1]; Table 11, A 2 g a.i./ha) was 28.12%, the “Fresh weight inhibition rate %” value ([1]; Table 11, A 4 g a.i./ha) was 38.50% and the “Fresh weight inhibition rate %” value ([1]; Table 11, A 8 g a.i./ha) was 46.05%. For the same compound, the “Fresh weight inhibition rate %” value ([1]; Table 11, A 16 g a.i./ha) was 52.89%, the “Fresh weight inhibition rate %” value ([1]; Table 12, A 4 g a.i./ha) was 38.50% and the “Fresh weight inhibition rate %” value ([1]; Table 12, A 8 g a.i./ha) was 46.05%. The “Fresh weight inhibition rate %” value ([1]; Table 12, A 16 g a.i./ha) was 52.89%, the “Fresh weight inhibition rate %” value ([1]; Table 42, A 2 g a.i./ha) was 28.12% and the “Fresh weight inhibition rate %” value ([1]; Table 42, A 4 g a.i./ha) was 38.50%. The “Fresh weight inhibition rate %” value ([1]; Table 42, A 8 g a.i./ha) was 46.05%, the “Fresh weight inhibition rate %” value ([1]; Table 42, A 16 g a.i./ha) was 52.89% and the “Fresh weight inhibition rate %” value ([1]; Table 43, A 4 g a.i./ha) was 38.50%. For the same compound, the “Fresh weight inhibition rate %” value ([1]; Table 43, A 8 g a.i./ha) was 46.05%.

In the case of `CCOC(=O)C(C)(C)OC(=O)c1cc(-n2c(=O)cc(C(F)(F)F)n(C)c2=O)c(F)cc1Cl` [Compound A-250], the “Fresh weight inhibition rate %” value ([2]; Table 9, 10 g a.i./ha, post-emergence, 21 days after treatment) is reported as 68.79%, the “Fresh weight inhibition rate %” value ([2]; Table 9, 15 g a.i./ha, post-emergence, 21 days after treatment) is reported as 70.47% and the “Fresh weight inhibition rate %” value ([2]; Table 9, 20 g a.i./ha, post-emergence, 21 days after treatment) is reported as 82.86%. For the same compound, the “Fresh weight inhibition rate %” value ([2]; Table 23, A 5 g a.i./ha) was 62.6%, the “Fresh weight inhibition rate %” value ([2]; Table 23, A 10 g a.i./ha) was 68.79% and the “Fresh weight inhibition rate %” value ([2]; Table 23, A 15 g a.i./ha) was 70.47%. The “Fresh weight inhibition rate %” value ([2]; Table 24, A 5 g a.i./ha) was 62.6%, the “Fresh weight inhibition rate %” value ([2]; Table 24, A 10 g a.i./ha) was 68.79% and the “Fresh weight inhibition rate %” value ([2]; Table 24, A 15 g a.i./ha) was 70.47%. The “Fresh weight inhibition rate %” value ([2]; Table 24, A 20 g a.i./ha) was 82.86%, the “Fresh weight inhibition rate %” value ([2]; Table 26, A 2 g a.i./ha) was 24.6% and the “Fresh weight inhibition rate %” value ([2]; Table 26, A 5 g a.i./ha) was 62.6%. The “Fresh weight inhibition rate %” value ([2]; Table 26, A 10 g a.i./ha) was 68.79%, the “Fresh weight inhibition rate %” value ([2]; Table 26, A 15 g a.i./ha) was 70.47% and the “Fresh weight inhibition rate %” value ([3]; Table 6, 10 g a.i./ha, post-emergence, 21 days after treatment) was 52.54%. The “Fresh weight inhibition rate %” value ([3]; Table 6, 15 g a.i./ha, post-emergence, 21 days after treatment) was 65.7%, the “Fresh weight inhibition rate %” value ([3]; Table 6, 20 g a.i./ha, post-emergence, 21 days after treatment) was 78.77% and the “Fresh weight inhibition rate %” value ([3]; Table 8, 10 g a.i./ha, post-emergence, 21 days after treatment) was 52.54%. For the same compound, the “Fresh weight inhibition rate %” value ([3]; Table 8, 15 g a.i./ha, post-emergence, 21 days after treatment) was 65.7%, the “Fresh weight inhibition rate %” value ([3]; Table 8, 20 g a.i./ha, post-emergence, 21 days after treatment) was 78.77% and the “Fresh weight inhibition rate %” value ([3]; Table 10, A 10 g a.i./ha) was 52.54%. For the same compound, the “Fresh weight inhibition rate %” value ([3]; Table 10, A 15 g a.i./ha) was 65.7%, the “Fresh weight inhibition rate %” value ([3]; Table 10, A 20 g a.i./ha) was 78.77% and the “Fresh weight inhibition rate %” value ([4]; Table 39, A 15 g a.i./ha) was 68.96%. For the same compound, the “Fresh weight inhibition rate %” value ([4]; Table 39, A 20 g a.i./ha) was 75.50%, the “Fresh weight inhibition rate %” value ([4]; Table 39, A 25 g a.i./ha) was 85.50% and the “Fresh weight inhibition rate %” value ([4]; Table 40, A 15 g a.i./ha) was 68.96%. For the same compound, the “Fresh weight inhibition rate %” value ([4]; Table 40, A 20 g a.i./ha) was 75.50%, the “Fresh weight inhibition rate %” value ([5]; Table 28, A 5 g a.i./ha) was 52.89% and the “Fresh weight inhibition rate %” value ([5]; Table 28, A 10 g a.i./ha) was 66.05%. The “Fresh weight inhibition rate %” value ([5]; Table 28, A 15 g a.i./ha) was 68.5%, the “Fresh weight inhibition rate %” value ([5]; Table 28, A 20 g a.i./ha) was 78.12% and the “Fresh weight inhibition rate %” value ([6]; Table 21, A 25 g a.i./ha) was 69.44%. The “Fresh weight inhibition rate %” value ([6]; Table 21, A 30 g a.i./ha) was 90.86%.

From US20250176550A1, “HERBICIDE COMPOSITION OF URACIL COMPOUND CONTAINING CARBOXYLATE FRAGMENT AND THE USE THEREOF” (Jiangsu Flag Chemical Industry Co., Ltd., priority 2022, published 2025)
